Like-named read-outs stand apart in the source and are kept apart here.
How the values were obtained:
[1] = system: promastigotes of L. mexicana; set-up: method as in doi:10.1016/j.phytol.2009.10.002; conditions: not part of this investigation; cited from earlier work
[2] = system: T. cruzi epimastigotes; assay: Trypanocidal activity against T. cruzi epimastigotes (XTT); assay type: cell-based, Trypanosoma cruzi; conditions: for IC50: Trypanosoma cruzi, read-out: T. cruzi IC50; for selectivity ratio at 72 h: mouse (RAW 264.7 cells) / Trypanosoma cruzi (epimastigotes), RAW cell IC50 / T. cruzi IC50, read-out: T. cruzi SI (selectivity index, cytotoxicity/anti-protozoal activity)
Procedure: Trypanocidal activity was determined according to Muelas-Serrano with some modifications. […] Benznidazol (3.1–100 μg/mL) was used as the control drug. Assays were performed in triplicates.

[3] = Cytotoxicity in RAW cells (Resazurin); assay type: cell-based, murine; conditions: mouse
Procedure: Evaluations against RAW cells: The Raw 264.7 murine macrophage cell line was purchased from the American Type Culture Collection (ATCC-TIB71). The cells were maintained in DMEM-HG medium supplemented with 10% fetal bovine serum, 100 U/mL of penicillin and 100 μg/mL of streptomycin, and sodium bicarbonate (2.2 g/L) in humidified atmosphere at 37 °C with 5% CO2. Samples were prepared as described above and added (in 100 μL DMSO) at different concentrations (6.2–200 μg/mL). Medium blank, control drugs and cell growth controls were included to evaluate cell viability. The plates were incubated for 72 h at 37 °C with 5% CO2. After incubation for the indicated time, the cells were washed, after which 10 μL of Resazurin reagent (2.0 mM) was added. They were further incubated at 37 °C for 3 h in a humidified incubator. The IC50 values were assessed using a fluorometric reader (540 nm excitation, 590 nm emission) and the Gen5 software. All assays were performed in triplicate.

[4] = system: L. brasiliensis promastigotes; assay: Leishmanicidal activity against L. brasiliensis promastigotes (XTT); conditions: for IC50: 72 h, read-out: L. brasiliensis IC50
Procedure: (§1) Evaluations against Leishmania parasites: Promastigotes of Leishmania-Leishmania: L. amazonensis, Clone 1, NHOM-BR-76-LTB-012 (Lma, donated by the Paul Sabatier Université, France) and Leishmania-Viannia: L. braziliensis M2904 C192 RJA (M2904, donated by Dr. Jorge Arévalo from Universidad Peruana Cayetano Heredia, Peru). All strains were cultured in Schneider’s insect medium, (pH 6.2) supplemented with 10% FBS and incubated at 26 °C. Medium changes were made every 72 h to maintain a viable parasitic population. Leishmanicidal activity was determined according to Williams with some modifications. Samples were dissolved in DMSO (maximum final concentration 1%) at 10 mg/mL. Promastigotes in logarithmic phase of growth, at the concentration 3 × 10^6 parasites/mL, were distributed (100 μL/well) in 96-well flat bottom microtiter plates. Samples with different concentrations (3.1–100 μg/mL) were added (100 μL). […] Assays were performed in triplicates. The microwell plates were incubated for 72 h at 26 °C. After incubation, a solution of XTT (1 mg/mL) in PBS (pH 7.0 at 37 °C) with PMS (0.06 mg/mL) was added (50 μL/well), and incubated for 3 h at 26 °C. The optical density of each well was measured and the IC50 values calculated.

[5] = system: L. amazoniensis promastigotes; assay: Leishmanicidal activity against L. amazoniensis promastigotes (XTT); conditions: for IC50: Leishmania amazonensis, 72 h, read-out: L. amazoniensis IC50
Procedure: as §1, with “All” for “Evaluations against Leishmania parasites: Promastigotes of Leishmania-Leishmania: L. amazonensis, Clone 1, NHOM-BR-76-LTB-012 (Lma, donated by the Paul Sabatier Université, France) and Leishmania-Viannia: L. braziliensis M2904 C192 RJA (M2904, donated by Dr. Jorge Arévalo from Universidad Peruana Cayetano Heredia, Peru). All”

[6] = RAW cells, 72 h at 37 °C, Resazurin, triplicate, read-out: Cytotoxicity IC50
[7] = epimastigotes, 72 h at 26 °C, XTT, triplicates
[8] = L. brasiliensis SI (selectivity index, cytotoxicity/anti-protozoal activity), RAW cell IC50 / L. brasiliensis IC50
[9] = L. amazoniensis SI (selectivity index, cytotoxicity/anti-protozoal activity), RAW cell IC50 / L. amazoniensis IC50

| Compound | IC50 [1] [µM] | IC50 ([2]; 72 h) [µM] | selectivity ratio at 72 h [2] | IC50 at 72 h [3, 6] [µM] | selectivity ratio at 72 h [4] | IC50 [4] [µM] | selectivity ratio at 72 h [5] | IC50 [5] [µM] | IC50 [2, 7] [µM] | IC50 at 72 h [3] [µM] | selectivity ratio at 72 h [4, 8] | selectivity ratio at 72 h [5, 9] |
| --- | --- | --- | --- | --- | --- | --- | --- | --- | --- | --- | --- | --- |
| COc1ccc2c(c1)-c1cc(CO)ccc1C(C)(C)O2 [compound 1, (2-methoxy-6,6-dimethyl-6H-benzo[c]chromen-9-yl)methanol] | 17 | 18.5 ± 9.6 | 1.7 | 30.7 ± 1.1 | 0.5 | 59.2 ± 11.8 | 0.4 | 77.7 ± 5.6 | – | – | – | – |
| C=CC(=O)OCc1ccc2c(c1)-c1cc(OC)ccc1OC2(C)C [4j, (2-Methoxy-6,6-dimethyl-6H-benzo[c]chromen-9-yl)methyl acrylate] | – | – | > 5 | – | – | 5.7 ± 0.5 | – | 6.9 ± 1.7 | 7.4 ± 0.9 | 40.1 ± 12.6 | > 5 | > 5 |
| COc1ccc2c(c1)-c1cc(COC(=O)c3ccccc3)ccc1C(C)(C)O2 [4l, (2-Methoxy-6,6-dimethyl-6H-benzo[c]chromen-9-yl)methyl benzoate] | – | – | 4.7 | – | – | 21 ± 4.3 | – | 21.9 ± 7.7 | 5.9 ± 0.5 | 27.8 ± 10.7 | 1.3 | 1.3 |
| COc1ccc2c(c1)-c1cc(COC(C)C)ccc1C(C)(C)O2 [3d, 9-(Isopropoxymethyl)-2-methoxy-6,6-dimethyl-6H-benzo[c]chromene] | – | – | 2.5 | 32 ± 0.3 | 0.9 | 35.2 ± 3.2 | 0.9 | 35.2 ± 3.8 | 12.9 ± 0.3 | – | – | – |
| COc1ccc2c(c1)-c1cc(COC(=O)CCC3CCCC3)ccc1C(C)(C)O2 [4h, (2-Methoxy-6,6-dimethyl-6H-benzo[c]chromen-9-yl)methyl 3-cyclopentylpropanoate] | – | – | 6.1 | – | 0.4 | 122 ± 27.9 | 1.6 | 30.9 ± 3 | 8.4 ± 3.3 | 50.7 ± 17.7 | – | – |
| COc1ccc2c(c1)-c1cc(COC(=O)C(C)C)ccc1C(C)(C)O2 [4b, (2-Methoxy-6,6-dimethyl-6H-benzo[c]chromen-9-yl)methyl isobutyrate] | – | – | 3 | – | – | 17.6 ± 0.9 | – | 26.7 ± 2.4 | 8.8 ± 0.9 | 26.4 ± 5.9 | 1.5 | 1 |
| COc1ccc2c(c1)-c1cc(C(C)=O)ccc1C(C)(C)O2 [5b, 1-(2-Methoxy-6,6-dimethyl-6H-benzo[c]chromen-9-yl)ethan-1-one] | – | – | 1.5 | – | – | 28.3 ± 7.1 | – | 43.2 ± 8.2 | 21.2 ± 9.2 | 31.9 ± 7.1 | 1.1 | 0.7 |
| COc1ccc2c(c1)-c1cc(C=O)ccc1C(C)(C)O2 [5a, 2-Methoxy-6,6-dimethyl-6H-benzo[c]chromene-9-carbaldehyde] | – | – | 1.6 | – | – | 24.2 ± 7.5 | – | 29.8 ± 11.2 | 24.2 ± 4.1 | 38.8 ± 3.7 | 1.6 | 1.3 |
| COc1ccc2c(c1)-c1cc(C)ccc1C(C)(C)O2 [3a, 2-Methoxy-6,6,9-trimethyl-6H-benzo[c]chromene] | – | – | 2 | – | 1.4 | 69.6 ± 5.9 | 1.2 | 85.3 ± 5.9 | 51.1 ± 17.7 | 99.5 ± 22 | – | – |
| CCCCCC(=O)OCc1ccc2c(c1)-c1cc(OC)ccc1OC2(C)C [4g, (2-Methoxy-6,6-dimethyl-6H-benzo[c]chromen-9-yl)methyl hexanoate] | – | – | 2.3 | 52.1 ± 8.1 | 1.9 | 27.7 ± 0.3 | 1.2 | 42.3 ± 8.7 | 22.8 ± 5.7 | – | – | – |
| COc1ccc2c(c1)-c1cc(C(=N)NO)ccc1C(C)(C)O2 [compound 6, N-hydroxy-2-methoxy-6,6-dimethyl-6H-benzo[c]chromene-9-carboximidamide] | – | – | 0.8 | – | – | 52 ± 18.6 | – | 52 ± 16.7 | 33.4 ± 14.9 | 26.4 ± 1.5 | 0.5 | 0.5 |
| CCCC(=O)OCc1ccc2c(c1)-c1cc(OC)ccc1OC2(C)C [4d, (2-Methoxy-6,6-dimethyl-6H-benzo[c]chromen-9-yl)methyl butyrate] | – | – | 6.4 | – | – | 57.8 ± 2.4 | – | 79.3 ± 9.4 | 16.2 ± 3.2 | 103 ± 35.3 | 1.8 | 1.3 |
| COc1ccc2c(c1)-c1cc(CNCC(C)C)ccc1C(C)(C)O2 [3g, N-((2-Methoxy-6,6-dimethyl-6H-benzo[c]chromen-9-yl)methyl)-2-methylpropan-1-amine] | – | – | 0.8 | – | – | 25.8 ± 6.2 | – | 15.4 ± 3.1 | 15.4 ± 4 | 12.3 ± 1.2 | 0.5 | 0.8 |
| COc1ccc2c(c1)-c1cc(COC(=O)CC(C)C)ccc1C(C)(C)O2 [4e, (2-Methoxy-6,6-dimethyl-6H-benzo[c]chromen-9-yl)methyl 3-methylbutanoate] | – | – | 6.7 | – | – | 13.1 ± 0.4 | – | 14.5 ± 0.1 | 4.2 ± 1.1 | 28.2 ± 9 | 2.2 | 1.9 |
| COc1ccc2c(c1)-c1cc(COC(=O)CC(C)(C)C)ccc1C(C)(C)O2 [4f, (2-Methoxy-6,6-dimethyl-6H-benzo[c]chromen-9-yl)methyl 3,3-dimethylbutanoate] | – | – | 3.3 | – | – | 20 ± 4.2 | – | 19.5 ± 0.8 | 5.7 ± 0.3 | 19 ± 3 | 1 | 1 |
| COCc1ccc2c(c1)-c1cc(OC)ccc1OC2(C)C [3c, 2-Methoxy-9-(methoxymethyl)-6,6-dimethyl-6H-benzo[c]chromene] | – | – | 1.3 | – | – | 49.2 ± 15.8 | – | 56.3 ± 12 | 24.6 ± 3.5 | 33.1 ± 2.1 | 0.7 | 0.6 |
| COc1ccc2c(c1)-c1cc(C(N)=O)ccc1C(C)(C)O2 [5e, 2-Methoxy-6,6-dimethyl-6H-benzo[c]chromene-9-carboxamide] | – | – | 0.4 | – | – | 145 ± 43.1 | – | 121 ± 21.2 | 134 ± 38.8 | 49.8 ± 17.7 | 0.3 | 0.4 |

Reference: article PMC7412453, “SAR:s for the Antiparasitic Plant Metabolite Pulchrol. 1. The Benzyl Alcohol Functionality” (Molecules, 2020)
